Columns and labels:
β-D-glucosidase = conditions: Casal et al. 1983; Polachek et al. 1987; cited from earlier work
[1] = system: isolated strains of Candida albicans, Candida guillermondii, Candida intermedia, Candida parapsilosis, Candida pseudotropicalis, Candida stellatoidea, Candida …; conditions: YEAST-IDENT, liquid medium, 4 h at 37° C.; cited from earlier work
Candida albicans = experiment: Tests on substrates against Candida albicans, colour reading on buffered gelose; assay type: cell-based; design: key to Specificity: interference with C. albicans: (a): interference with C. albicans (++++); (b): interference with C. krusei (++); (c): interference with C. tropicalis (++)
C. albicans [2] = experiment: Diagnosis from isolated colonies on gelose 2/5; assay type: cell-based, Candida albicans; conditions: isolated colonies; further: key: -: none; +: weak; ++: moderate; +++: intense; ++++: very intense
C. tropicalis [3] = experiment: Diagnosis from isolated colonies on gelose 2/5; assay type: cell-based, Candida tropicalis; conditions: isolated colonies
T. glabrata [4] = experiment: Diagnosis from isolated colonies on gelose 2/5; assay type: cell-based, Torulopsis glabrata; conditions: isolated colonies; further: key: -: none; +: weak; ++: moderate; +++: intense; ++++: very intense
C. krusei [5] = experiment: Diagnosis from isolated colonies on gelose 2/5; assay type: cell-based, Candida krusei
Experimental: (§1) According to the afore-mentioned best mode of carrying out the invention, a culture medium containing the following ingredients is prepared; it is called gelose 2 below and is buffered to pH 6.0.
(§2) According to the afore-mentioned best mode of carrying out the invention, a culture medium containing the following ingredients is prepared; it is called gelose 5 below and is buffered to pH 6.0.
Several isolated strains of C. albicans, C. tropicalis, C. krusei, C. guillermondii, C. pseudotropicalis, C. parapsilosis, C. zeylanoides, T. glabrata and Trichosporon cutaneum were inoculated and incubated on the media of Examples 1 to 5. […] Part of the results obtained has been collated in Table VI below, where the TTC column relates to results of tests undertaken separately on a standard gelose medium containing TTC.
Several isolated strains of C. albicans, C. tropicalis, C. krusei, C. guillermondii and T. glabrata were inoculated and incubated on the media of Example 2 [containing either the substrate N-Ac-β-D-galactosaminide-PNP of the prior art, or the substrates H-L-PropNA.AcOH (specific for C. albicans), EM-L-Phg-L-ArgpNA.AcOH (specific for T. glabrata) and H-Gly-L-Pro-L-Arg-pNA.2AcOH (specific for C. krusei)]and of Example 5 (containing the substrate H-L-Pro-pNA.AcOH).

C. guillermondii [6] = experiment: Diagnosis from isolated colonies on gelose 2/5; assay type: cell-based, Candida guillermondii; conditions: Table VI; further: key: -: none; +: weak; ++: moderate; +++: intense; ++++: very intense
C. zeylanoides [7] = experiment: Diagnosis from isolated colonies on gelose 2/5; assay type: cell-based, Candida zeylanoides; conditions: Table VI; further: key: -: none; +: weak; ++: moderate; +++: intense; ++++: very intense
Tr. cutaneum [8] = experiment: Diagnosis from isolated colonies on gelose 2/5; assay type: cell-based, Trichosporon cutaneum; conditions: Table VI; further: key: -: none; +: weak; ++: moderate; +++: intense; ++++: very intense
C. parapsilosis [9] = experiment: Diagnosis from isolated colonies on gelose 2/5; assay type: cell-based, Candida parapsilosis; conditions: Table VI; further: key: -: none; +: weak; ++: moderate; +++: intense; ++++: very intense
C. pseudotropicalis [10] = experiment: Diagnosis from isolated colonies on gelose 2/5; assay type: cell-based, Candida pseudotropicalis; conditions: Table VI; further: key: -: none; +: weak; ++: moderate; +++: intense; ++++: very intense
C. albicans [11] = experiment: Diagnosis from non-isolated colonies on gelose 2/5; assay type: cell-based, Candida albicans
T. glabrata [12] = experiment: Diagnosis from non-isolated colonies on gelose 2/5; assay type: cell-based, Torulopsis glabrata; further: key: -: none; +: weak; ++: moderate; +++: intense; ++++: very intense
C. krusei [13] = experiment: Diagnosis from non-isolated colonies on gelose 2/5; assay type: cell-based, Candida krusei
Experimental: as §1, §2
A mixture of several non-isolated strains of C. albicans, C. tropicalis, C. krusei, C. guillermondii, C. pseudotropicalis, C. parapsilosis, Cryptococcus neoformaas, Torulopsis glabrata and Trichosporon cutaneum was inoculated and incubated on the culture media according to Examples 1 to 5, containing the substrate N-Ac-β-D-galactosaminide-PNP of the prior art or the substrate H-Pro-pNA.AcOH according to the invention. The results, which were obtained particularly with geloses 2 and 5, are collated in Table VIII below, where the TTC column relates to results of tests undertaken separately on a standard gelose medium containing TTC.
(§3) A mixture of several non-isolated strains of C. albicans, C. tropicalis, C. krusei, C. guillermondii, C. pseudotropicalis, C. parapsilosis, C. zeylanoides, C. ciferii, C. cerevisiae, Torulopsis glabrata and Trichosporon cutaneum was inoculated and incubated on the culture media according to Example 5, containing the substrate N-Ac-β-D-galactosaminide-PNP of the prior art or the substrate H-Pro-pNA.AcOH according to the invention.

C. tropicalis [14] = experiment: Diagnosis from non-isolated colonies on gelose 2/5; assay type: cell-based, Candida tropicalis; further: key: -: none; +: weak; ++: moderate; +++: intense; ++++: very intense
C. pseudotropicalis [15] = experiment: Diagnosis from non-isolated colonies on gelose 2/5; assay type: cell-based, Candida pseudotropicalis; further: key: -: none; +: weak; ++: moderate; +++: intense; ++++: very intense
C. parapsilosis [16] = experiment: Diagnosis from non-isolated colonies on gelose 2/5; assay type: cell-based, Candida parapsilosis; further: key: -: none; +: weak; ++: moderate; +++: intense; ++++: very intense
Tr. cutaneum [17] = experiment: Diagnosis from non-isolated colonies on gelose 2/5; assay type: cell-based, Trichosporon cutaneum
Cr. neoformans = experiment: Diagnosis from non-isolated colonies on gelose 2/5; assay type: cell-based, Cryptococcus neoformans; conditions: Table VIII; further: key: -: none; +: weak; ++: moderate; +++: intense; ++++: very intense
C. guillermondii [18] = experiment: Diagnosis from non-isolated colonies on gelose 2/5; assay type: cell-based, Candida guillermondii; further: key: -: none; +: weak; ++: moderate; +++: intense; ++++: very intense
C. zeylanoides [19] = experiment: Diagnosis from non-isolated colonies on gelose 5; assay type: cell-based, Candida zeylanoides; conditions: Table IX, 1 strain, gelose 5, cycloheximide; further: key: -: none; +: weak; ++: moderate; +++: intense; ++++: very intense
C. ciferii = experiment: Diagnosis from non-isolated colonies on gelose 5; assay type: cell-based; conditions: Table IX, 1 strain, gelose 5, cycloheximide; further: key: -: none; +: weak; ++: moderate; +++: intense; ++++: very intense
C. cerevisiae = experiment: Diagnosis from non-isolated colonies on gelose 5; assay type: cell-based
Experimental: as §2, §3

Candida guillermondii = experiment: Tests on substrates against Candida guillermondii; design: Reading at 24 h: key to the marks not given beside the values; conditions: Table V
[20] = system: C. albicans, C. guillermondii, C. intermedia, C. lipolytica, C. lusitanica, C. parapsilosis, C. rugosa and C. zeylanoides; conditions: U.S. Pat. No. 4,874,695, Table IV; cited from earlier work
[21] = system: N-acetyl-β-D-glucosaminidase; conditions: Casal et al. 1983; Polachek et al. 1987; cited from earlier work
[22] = Table VI, gelose 5 (maltose, cycloheximide)
[23] = Table VII, gelose 5 with cycloheximide
[24] = gelose 5 (maltose, cycloheximide)
[25] = Table VIII, gelose 5 (maltose, cycloheximide)
[26] = Table IX, 1 strain, gelose 5, cycloheximide
[27] = Table IX, 2 strains, gelose 5, cycloheximide
[28] = Table VIII, 2 strains, gelose 2

OC[C@H]1O[C@@H](Oc2ccc3cc(Br)ccc3c2)[C@H](O)[C@@H](O)[C@@H]1O [(6-bromo-β-naphthyl)-β-D-glucopyranoside]
reaction with isolated strains (β-D-glucosidase): positive reaction

O=C(Nc1ccc2ccccc2c1)[C@@H]1CCCN1 [H-L-Pro-NA]
reaction with isolated strains [1]: positive reaction

CC(=O)O.O=C(Nc1ccc([N+](=O)[O-])cc1)[C@@H]1CCCN1 [H-L-Pro-pNA.AcOH]
Specificity: nonspecific for the strains of Candida albicans (Candida albicans; Table I): (a)
Reading at 24 h (Candida albicans; Table I, medium pH 6.0, YNB, glucose, agar, gentamycin, coloration or fluorescence): ++++
Specificity: interference with C. albicans (Candida albicans; Table V): (a)
Reading at t = 24 h (C. albicans [2]; Table VI, 10 strains, gelose 2): ++++
Reading at t = 24 h (C. albicans [2]; [22]): ++++
Reading at t = 24 h (C. albicans [2]; Table VII, 6 strains, gelose 2): ++++
Reading at t = 24 h (C. albicans [2]; [23]): ++++
Reading at t = 24 h (C. tropicalis [3]; Table VI, 4 strains, gelose 2): -
Reading at t = 24 h (C. tropicalis [3]; [22]): -
Reading at t = 24 h (C. tropicalis [3]; Table VII, 9 strains, gelose 2): -
Reading at t = 24 h (C. tropicalis [3]; [23]): -
Reading at t = 24 h (T. glabrata [4]; Table VI, 4 strains, gelose 2): -
Reading at t = 24 h (T. glabrata [4]; [22]): -
Reading at t = 24 h (T. glabrata [4]; Table VII, 9 strains, gelose 2): -
Reading at t = 24 h (T. glabrata [4]; [23]): -
Reading at t = 24 h (C. krusei [5]): -
Reading at t = 24 h (C. guillermondii [6]; 2 strains, gelose 2): +++
Reading at t = 24 h (C. guillermondii [6]; [24]): -
Reading at t = 24 h (C. zeylanoides [7]; 1 strain, gelose 2): ++
Reading at t = 24 h (C. zeylanoides [7]; [24]): -
Reading at t = 24 h (Tr. cutaneum [8]; 1 strain, gelose 2): +
Reading at t = 24 h (Tr. cutaneum [8]; [24]): -
Reading at t = 24 h (C. parapsilosis [9]; 5 strains, gelose 2): +++
Reading at t = 24 h (C. parapsilosis [9]; [24]): -
Reading at t = 24 h (C. pseudotropicalis [10]; 2 strains, gelose 2): -
Reading at t = 24 h (C. pseudotropicalis [10]; [24]): -
Reading at t = 24 h (C. albicans [11]; Table IX, 89 strains, gelose 5, cycloheximide): ++++
Reading at t = 24 h (C. albicans [11]; Table VIII, 13 strains, gelose 2): ++++
Reading at t = 24 h (C. albicans [11]; [25]): +++
Reading at t = 24 h (T. glabrata [12]; Table IX, 8 strains, gelose 5, cycloheximide): -
Reading at t = 24 h (T. glabrata [12]; Table VIII, 8 strains, gelose 2): -
Reading at t = 24 h (T. glabrata [12]; [25]): -
Reading at t = 24 h (C. krusei [13]): -
Reading at t = 24 h (C. tropicalis [14]; [26]): -
Reading at t = 24 h (C. tropicalis [14]; Table VIII, 1 strain, gelose 2): -
Reading at t = 24 h (C. tropicalis [14]; [25]): -
Reading at t = 24 h (C. pseudotropicalis [15]; [27]): -
Reading at t = 24 h (C. pseudotropicalis [15]; Table VIII, 1 strain, gelose 2): -
Reading at t = 24 h (C. pseudotropicalis [15]; [25]): -
Reading at t = 24 h (C. parapsilosis [16]; [26]): -
Reading at t = 24 h (C. parapsilosis [16]; [28]): +++
Reading at t = 24 h (C. parapsilosis [16]; [25]): -
Reading at t = 24 h (Tr. cutaneum [17]; [27]): -
Reading at t = 24 h (Tr. cutaneum [17]; [28]): ++
Reading at t = 24 h (Tr. cutaneum [17]; [25]): -
Reading at t = 24 h (Cr. neoformans; 1 strain, gelose 2): -
Reading at t = 24 h (Cr. neoformans; [24]): -
Reading at t = 24 h (C. guillermondii [18]; [26]): -
Reading at t = 24 h (C. guillermondii [18]; Table VIII, 1 strain, gelose 2): +++
Reading at t = 24 h (C. guillermondii [18]; [25]): -
Reading at t = 24 h (C. zeylanoides [19]): -
Reading at t = 24 h (C. ciferii): -
Reading at t = 24 h (C. cerevisiae): -
Reading at 24 h (Candida guillermondii): ++++

O=C(Nc1ccc([N+](=O)[O-])cc1)[C@@H]1CCCN1 [H-L-Pro-pNA]
sensitivity towards strains of Candida [20]: sensitive towards several strains of Candida

CC(=O)N[C@H]1[C@H](Oc2ccc3ccccc3c2)O[C@H](CO)[C@@H](O)[C@@H]1O [β-naphthyl-N-acetyl-β-D-glucosaminide]
reaction with isolated strains [21]: positive reaction

— patent US5449612A, “Process for identifying candida by means of chromogenic substances” (Serbio, priority 1990, dated 1995)
